The conditions of data set [1]: cited from earlier work.
The test system of a further data set is other smooth muscles. To be noted: cited from earlier work.
Data set [2] deals with human platelet agglutination. To be noted: cited from earlier work.
Another data set deals with artery. To be noted: cited from earlier work.
The subject of data set [3] is platelet agglutination (PRP, plasma rich in platelet). The data set is described as follows: Change of agglutination-inhibition rate with incubation time, fat emulsions (evaluated indirectly via c-AMP content in the platelets). To be noted: incubation 1 minute; compounds in fat emulsion, sodium salt of prostaglandin I2 in aq. solution. Type of data set: cell-based, Wistar-strain male rats. Also on record: concentration or dose not given beside the values.

Data set [4] shares this test system. The data set is described as above. Type of data set: cell-based, Wistar-strain male rats. To be noted: compounds in fat emulsion, sodium salt of prostaglandin I2 in aq. solution; for agglutination-inhibition rate, incubation time 5 minutes: incubation 5 minutes; for agglutination-inhibition rate, incubation time 20 minutes: incubation 20 minutes; for agglutination-inhibition rate, incubation time 60 minutes: incubation 60 minutes. Details: concentration or dose not given beside the values. An excerpt:
(§1) Wistar-strain male rats weighing 150 to 200 g were used in the experiment.
(§2) Blood samples were collected from the heart of the animal without anasthesia by the use of a syringe, in which 3.3% sodium citrate solution had been placed beforehand, in such a way that the volume ratio of the sodium citrate solution to the collected blood was 1:9. The collected blood was then quickly centrifuged at 170 G at room temperature to obtain plasma rich in platelet (hereinafter referred to as PRP).
Separately, by using fat emulsions prepared as in Example 3 and extending the incubation time to 5, 20 and 60 minutes, the changes in agglutination-inhibition rate were observed. Each fat emulsion was prepared to contain 1 mg in terms of prostaglandin I2 of a test compound. It was incubated with PRP for a predetermined time; the platelets were then washed; and the content of c-AMP in the platelets was determined, thus to evaluate indirectly the inhibitory action on platelet agglutination. A physiological saline solution of sodium salt of prostaglandin I2 was used as the control.

For data set [5] the test system is unchanged. The data set is described as follows: Platelet-agglutination inhibition test (rat PRP, adenosine phosphate, aggregometer). The data set is classed as cell-based, Wistar-strain male rats. To be noted: 1 min, concentration in terms of prostaglandin I2 reducing maximum agglutination rate by 50% relative to control, 1 min at 37° C., 1 mM adenosine phosphate, read-out: ED50 (the source's name).
Source text: as §1, §2
Then, the compounds 1, 2 and 3 as well as sodium salt of prostaglandin I2 were respectively dissolved in ethanol to a concentration of 1 mg/ml in terms of prostaglandin I2, and thereafter diluted with physiological saline to form solutions of various concentrations.
The platelet-agglutination inhibition test was carried out in the following manner.
The above-mentioned PRP (500 μl) and the above solution 50 μl) containing the drug tested were incubated at 37° C. for one minute in an aggregometer cuvette; then 1 mM adenosine phosphate solution (50 μl) was added to the mixture to obtain an agglutination curve on the instrument and determine the maximum agglutination rate. A mixture of 500 μl of PRP, 50 μl of physiological saline and 50 μl of 1 mM adenosine phosphate solution was used as the control to obtain similarly an agglutination curve.
The concentration (ED50) in terms of prostaglandin I2 of each of the drugs to be tested, at which the solution containing the drug reduces the percentage of the maximum agglutination rate by 50% relative to that of the control taken as 100, was calculated.

A further data set has as its system platelet agglutination. To be noted: cited from earlier work.

Converted amounts (≈) assume the structure as drawn. Structures can show the parent of a compound that is named as a salt.

As to `CCCCC[C@H](O)/C=C/[C@@H]1[C@H]2C/C(=C/CCCC(=O)O)O[C@H]2C[C@H]1O` [prostaglandin I2, (5Z,13E)-(9α, 11α, 15S)-6,9-epoxy-11,15-dihydroxyprosta-5,13-dienoic acid], the water solubility entry in data set [1] was “fairly water-soluble”. Besides, the “relaxation of other smooth muscles” value in the data set with other smooth muscles is “does not relax other smooth muscles”. Further, the “suppression of human platelet agglutination action induced by arachidonic acid” value in data set [2] is “strongly suppresses”. For the same compound, the “artery-relaxative or artery-contractive action” value with artery is given as “powerful artery-relaxative action”.

Regarding `CCCCC[C@H](O)/C=C/[C@@H]1[C@H]2C/C(=C/CCCC(=O)O)O[C@H]2C[C@H]1O` [Sodium salt of prostaglandin I2, reference compound], in data set [3], the “agglutination-inhibition rate, incubation time 1 minute” value stood at 100%. Besides, in data set [4], the “agglutination-inhibition rate, incubation time 5 minutes” value is given as 17%; the “agglutination-inhibition rate, incubation time 20 minutes” value is reported as 0%; the “agglutination-inhibition rate, incubation time 60 minutes” value is on record as 0%. Further, the IC50 in data set [5] is 0.4 µg/mL.

Consider `CCCCCC(O)C=CC1C(O)CC2OC(=CCCCC(=O)OCC(=O)OCCCC)CC21` (centres unmarked) [Compound 1, butoxycarbonylmethyl prostaglandin I2 ester], for which, in data set [3], the “agglutination-inhibition rate, incubation time 1 minute” value amounted to 13%. In addition, in data set [4], the “agglutination-inhibition rate, incubation time 5 minutes” value amounted to 11%; the “agglutination-inhibition rate, incubation time 20 minutes” value came out at 7%; the “agglutination-inhibition rate, incubation time 60 minutes” value was 3%. In addition, the IC50 in data set [5] was determined as 4.6 µg/mL (≈ 9.86 µM).

Turning to `CCCCCC(O)C=CC1OC2CC(O2)C1CC=CCCCC(=O)O` (centres unmarked) [thromboxan A2], the platelet-agglutination action result with platelet agglutination is given as “platelet-agglutination action”. Further, the “artery-relaxative or artery-contractive action” value in the data set with artery is “artery-contractive action”.

For the compound `CCCCCC(=O)OC(C)OC(=O)CCCC=C1CC2C(CC(O)C2C=CC(O)CCCCC)O1` (centres unmarked) [Compound 3, 1-Hexanoyloxyethyl prostaglandin I2 ester], in data set [3], the “agglutination-inhibition rate, incubation time 1 minute” value worked out at 78%. Also, in data set [4], the “agglutination-inhibition rate, incubation time 5 minutes” value is given as 71%; the “agglutination-inhibition rate, incubation time 20 minutes” value stood at 65%; the “agglutination-inhibition rate, incubation time 60 minutes” value is reported as 48%. In addition, the IC50 in data set [5] is 0.7 µg/mL (≈ 1.42 µM).

As to `CCCCCC(O)C=CC1C(O)CC2OC(=CCCCC(=O)OCOC(=O)C(C)(C)C)CC21` (centres unmarked) [Compound 2, Pivaloyloxymethyl prostaglandin I2 ester], the “agglutination-inhibition rate, incubation time 1 minute” value in data set [3] came out at 93%. In data set [4], the “agglutination-inhibition rate, incubation time 5 minutes” value was 78%; the “agglutination-inhibition rate, incubation time 20 minutes” value is listed as 51%; the “agglutination-inhibition rate, incubation time 60 minutes” value worked out at 27%. Besides, the IC50 in data set [5] is 0.5 µg/mL (≈ 1.07 µM).

These data come from US4613614A, “Prostaglandin I2 ester and fat emulsion containing the same” (The Green Cross Corporation, priority 1983, dated 1986).
